Literature values as cited in patent publication US7652024B2, “Acylated spiropiperidine derivatives as melanocortin-4 receptor modulators” (Merck Sharp & Dohme Corp., priority 2005, dated 2010).

Test system: erectile dysfunction patients

CCCc1nn(C)c2c(=O)[nH]c(-c3cc(S(=O)(=O)N4CCN(C)CC4)ccc3OCC)nc12 [Sildenafil, sildenafil]
effective in share of patients: about 70%
